Test results published in US11141419B1, “Use of iminosugars as prophylactic and therapy against COVID-19 / SARS-CoV-2” (priority 2020, dated 2021).
Where two headings read alike, the source gives them in different places.

Assays:
SARS-CoV-2 = type: cell-based; details: Huh7.0, lower MOI (0.1), 250 μM, three days
SARS-CoV-2 virus = type: cell-based; details: Vero E6, MOI 0.01, 100 μM iminosugar, 24 hrs, supernatant
[1] = test system: Lentiviruses expressing SARS-CoV-2 spike glycoprotein (Wuhan isolate, P.1, B.1.1.7, B.1.351); type: cell-based; details: 100 μM iminosugar, 24 hrs pre-treatment, luciferase after 48 hrs
Huh7.0 human cells = assay: Cell viability (MTS assay) of uninfected Huh7.0 cells; details: various concentrations, three days
SARS-CoV-2/WA/1 virus = assay: Plaque reduction assay in Vero E6 cells; type: cell-based; details: Vero E6 cells pre-treated and overlaid with iminosugar, 40 PFU, 48 hrs, duplicate wells, read-out: IC50 against SARS-CoV-2 (plaque formation)
COVID-19 = details: repurposed drug regimens; cited from earlier work
[2] = Severe acute respiratory syndrome coronavirus 2, Vero C1008

With `OCCN1C[C@H](O)[C@@H](O)[C@H](O)[C@H]1CO` [Miglitol, miglitol] as the compound, how does the cell survival (SARS-CoV-2) read?
Its cell survival is “completely restored”.

What about the “SARS-CoV-2 viral RNA production / viral genome copy number (N1 gene PCR)” value (SARS-CoV-2 virus) of the same compound?
Its value is “significantly reduced”.

What about the “pseudotyped SARS-CoV-2 viral entry into human 293t-hACE2 cells” value [1] of the same compound?
Its value is “significant decrease”.

What about the “toxicity to human cells” value (Huh7.0 human cells) of the same compound?
Its value is “without toxicity”.

And the IC50 (SARS-CoV-2/WA/1 virus; [2])?
The IC50 was 135 µM.

Which results are given for `O[C@H]1[C@H](O)[C@@H](O)CN2CC[C@H](O)[C@H]12` [Castanospermine, castanospermine]?
SARS-CoV-2 viral RNA production / viral genome copy number (N1 gene PCR) (SARS-CoV-2 virus): significantly reduced; pseudotyped SARS-CoV-2 viral entry into human 293t-hACE2 cells [1]: significant decrease; IC50 (SARS-CoV-2/WA/1 virus): 91 µM

With `Cc1cccc(C)c1OCC(=O)N[C@@H](Cc1ccccc1)[C@@H](O)C[C@H](Cc1ccccc1)NC(=O)[C@H](C(C)C)N1CCCNC1=O` [lopinavir] as the compound, how does the “effect on hospitalized COVID-19 patients” value (COVID-19) read?
Its value is “little or no effect”.

With `CCN(CCO)CCCC(C)Nc1ccnc2cc(Cl)ccc12` (centres unmarked) [hydroxychloroquine] as the compound, how does the “effect on hospitalized COVID-19 patients” value (COVID-19) read?
The value was “little or no effect”.

With `C[C@H]1O[C@H](O[C@H]2[C@H](O)[C@@H](O)[C@@H](O[C@H]3[C@H](O)[C@@H](O)C(O)O[C@@H]3CO)O[C@@H]2CO)[C@H](O)[C@@H](O)[C@@H]1N[C@H]1C=C(CO)[C@@H](O)[C@H](O)[C@H]1O` (some centres unmarked) [Acarbose, acarbose] as the compound, how does the IC50 (SARS-CoV-2/WA/1 virus; [2]) read?
The IC50 was 105 µM.
